In ChEMBL document CHEMBL1134708, “Synthesis of analogues of the O-beta-D-ribofuranosyl nucleoside moiety of liposidomycins. Part 1: contribution of the amino group and the uracil moiety upon the inhibition of MraY” (Bioorg Med Chem Lett, 2001):

Target: T1, Phospho-N-acetylmuramoyl-pentapeptide-transferase (Escherichia coli K-12, UniProt P0A6W3)
T1 sequence (P0A6W3 whole entry): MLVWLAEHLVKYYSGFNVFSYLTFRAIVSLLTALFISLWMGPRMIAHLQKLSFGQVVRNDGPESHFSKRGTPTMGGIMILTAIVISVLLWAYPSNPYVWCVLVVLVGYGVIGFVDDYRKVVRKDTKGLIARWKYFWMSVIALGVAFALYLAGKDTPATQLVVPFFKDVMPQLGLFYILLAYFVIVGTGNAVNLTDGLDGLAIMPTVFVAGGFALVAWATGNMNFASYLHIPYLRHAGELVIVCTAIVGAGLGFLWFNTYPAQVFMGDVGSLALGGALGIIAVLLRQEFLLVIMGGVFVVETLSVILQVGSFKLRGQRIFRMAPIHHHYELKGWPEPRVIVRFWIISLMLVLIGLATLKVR
Assay: Inhibition of Escherichia coli Translocase (mraY); call rule not given here

Row | SMILES | IC50
1 | N=C(N)NC[C@H]1O[C@@H](OC[C@H]2O[C@@H](n3ccc(=O)[nH]c3=O)[C@H](O)[C@@H]2O)[C@H](O)[C@@H]1O | 25 µM
2 | CC(C)NC[C@H]1O[C@@H](OC[C@H]2O[C@@H](n3ccc(=O)[nH]c3=O)[C@H](O)C2O)[C@H](O)C1O (single isomer, unassigned) | 180 µM
3 | NC[C@H]1O[C@@H](OC[C@H]2O[C@@H](n3ccc(=O)[nH]c3=O)[C@H](O)C2O)[C@H](O)C1O (single isomer, unassigned) | 50 µM
4 | CNC[C@H]1O[C@@H](OC[C@H]2O[C@@H](n3ccc(=O)[nH]c3=O)[C@H](O)C2O)[C@H](O)C1O (single isomer, unassigned) | 45 µM
5 | CCCCCCNC[C@H]1O[C@@H](OC[C@H]2O[C@@H](n3ccc(=O)[nH]c3=O)[C@H](O)C2O)[C@H](O)C1O (single isomer, unassigned) | 130 µM
6 | C[N+](C)(C)C[C@H]1O[C@@H](OC[C@H]2O[C@@H](n3ccc(=O)[nH]c3=O)[C@H](O)C2O)[C@H](O)C1O (single isomer, unassigned) | > 1000 µM
7 | O=c1ccn([C@@H]2O[C@H](CO[C@@H]3O[C@H](CO)C(O)[C@H]3O)C(O)[C@H]2O)c(=O)[nH]1 (single isomer, unassigned) | > 1000 µM

Further lines, results first:

Row | IC50 | SMILES
8 | 5 µM | NC[C@H]1O[C@@H](OC(CO)[C@H]2O[C@@H](n3ccc(=O)[nH]c3=O)[C@H](O)[C@@H]2O)[C@H](O)[C@@H]1O (stereo partly specified)
9 | > 1000 µM | CC(=O)NC[C@H]1O[C@@H](OC[C@H]2O[C@@H](n3ccc(=O)[nH]c3=O)[C@H](O)[C@@H]2O)[C@H](O)[C@@H]1O
10 | 150 µM | CCNC[C@H]1O[C@@H](OC[C@H]2O[C@@H](n3ccc(=O)[nH]c3=O)[C@H](O)C2O)[C@H](O)C1O (single isomer, unassigned)
11 | 30 µM | N=CNC[C@H]1O[C@@H](OC[C@H]2O[C@@H](n3ccc(=O)[nH]c3=O)[C@H](O)C2O)[C@H](O)C1O (single isomer, unassigned)
12 | > 1000 µM | CN(C)C[C@H]1O[C@@H](OC[C@H]2O[C@@H](n3ccc(=O)[nH]c3=O)[C@H](O)C2O)[C@H](O)C1O (single isomer, unassigned)
13 | > 1000 µM | O=CNC[C@H]1O[C@@H](OC[C@H]2O[C@@H](n3ccc(=O)[nH]c3=O)[C@H](O)C2O)[C@H](O)C1O (single isomer, unassigned)
14 | 140 µM | CCCNC[C@H]1O[C@@H](OC[C@H]2O[C@@H](n3ccc(=O)[nH]c3=O)[C@H](O)C2O)[C@H](O)C1O (single isomer, unassigned)

Target: T1, Phospho-N-acetylmuramoyl-pentapeptide-transferase
Assay: Inhibition of Translocase (mraY) at >1000 uM (No activity)

Row | SMILES | IC50
15 | Cn1c(=O)ccn([C@@H]2O[C@H](CO[C@@H]3O[C@H](CN)C(O)[C@H]3O)C(O)[C@H]2O)c1=O (single isomer, unassigned) | Not Active
16 | NC[C@H]1O[C@@H](OC[C@H]2O[C@@H](N3CCC(=O)NC3=O)[C@H](O)C2O)[C@H](O)C1O (single isomer, unassigned) | Not Active
